This test has as its target GR complex. As to the kind of experiment: [35S]TBPS binding assay (inhibition of [35S]TBPS binding, cerebral cortex P2 homogenate). On the set-up: species or system rat. As to conditions: for IC50: 2 nM [35S]TBPS, rat cerebral cortex P2 homogenate; for IMAX: maximum inhibition of [35S]TBPS binding. As to the method:
We performed several experiments to determine the nature of the modulation of [^35S]TBPS as affected by the compounds of the invention.
These procedures were performed as follows:
Brains from male Sprague-Dawley rats were removed immediately following sacrifice and the cerebral cortices dissected over ice. […] Briefly, the cortices were gently homogenized in 0.32 M sucrose followed by centrifugation at 1000 x g for 10 minutes. The supernatant was collected and centrifuged at 9000 x g for 20 minutes. The resultant P2 pellet was suspended as a 10% (original wet weight/volume) suspension in 50 mM Na/K phosphate buffer (pH 7.4) 200 mM NaCl to form the homogenate.
One hundred microliter […] aliquots of the P2 homogenate (0.5 milligrams (mg) protein) were incubated with 2 nanomolar (nM) [^35S]TBPS (70-110 curies/millimole; New England Nuclear, Boston, MA) in the presence or absence of the naturally occurring steroids or their synthetic derivatives to be tested. The tested compounds were dissolved in dimethylsulfoxide (Baker Chem. Co., Phillipsbury, NJ) and added to the incubation mixture in 5 µL aliquots. The incubation mixture was brought to a final volume of 1 mL with buffer. Non-specific binding was defined as binding in the presence of […] TBPS. The effect and specificity of GABA (Sigma Chem. Co., St. Louis, MO) was evaluated by performing all assays in the presence of GABA plus (+)bicuculline (Sigma Chem. Co.). maintained at 25°C for 90 minutes (steady state conditions) were terminated by rapid filtration through glass fiber filters (No. 32, Schleicher and Schuell, Keene, NH). Filter-bound radioactivity was quantitated by liquid scintillation spectrophotometry.
Various compounds were screened to determine their potential as modulators of [^35S]TBPS binding in vitro. These assays were performed in accordance with the above discussed procedures. […] It is an indication of a compound's in vitro potency. Maximum inhibition is an indication of a compound's in vitro efficacy.

Molecules are shown by their SMILES.

Usually IC50 stands for the point on the concentration scale where inhibition reaches its midpoint. A lower IC50 goes with inhibition by little substance. The compound `CC(=O)Oc1ccc(C#C[C@@]2(O)CC[C@@]3(C)[C@H](CC[C@@H]4[C@@H]3CC[C@]3(C)[C@@H](C(C)=O)CC[C@@H]43)C2)cc1` [3β-(4'-Acetoxyphenylethynyl)-3α-hydroxy-5β-pregnan-20-one] registered an IC50 of 1.43 µM and an IMAX of 100%. `CC(=O)C1CCC2C3CCC4CC(O)(C#CCn5nccn5)CCC4(C)C3CCC12C` (stereo not drawn) [3α-Hydroxy-3β-[3-(2'H-1,2,3-triazol-2'-yl)-1-propynyl]-5β-pregnan-20-one]: the half-inhibitory concentration (IC50) is 0.066 µM and the IMAX worked out at 98%. In the same order, the values of `CCN(CC)C(=O)c1ccc(C#CC2(O)CCC3(C)C(CCC4C3CCC3(C)C(C(C)=O)CCC43)C2)cc1` (stereo not drawn) [3β-[4'-(N,N-diethylcarboxamido)phenyl]ethynyl-3α-hydroxy-5β-pregnan-20-one] are 0.087 µM and 94%. Taken in the same sequence, the figures for `CC(=O)[C@H]1CC[C@H]2[C@@H]3CC[C@@H]4C[C@@](O)(C#CCCO)CC[C@]4(C)[C@H]3CC[C@]12C` [3β-(4'-hydroxy-1'-butynyl)-3α-hydroxy-5β-pregnan-20-one] were 0.013 µM and 103%. In the case of `CC(=O)[C@H]1CC[C@H]2[C@@H]3CC[C@@H]4C[C@@](O)(C#Cc5ccccc5)CC[C@]4(C)[C@H]3CC[C@]12C` [3α-hydroxy-3β-phenylethynyl-5β-pregnan-20-one], the IC50 is 0.098 µM and the IMAX was 101%. `CC(=O)[C@H]1CC[C@H]2[C@@H]3CC[C@@H]4C[C@@](O)(C#Cc5ccc([N+](=O)[O-])cc5)CC[C@]4(C)[C@H]3CC[C@]12C` [3β-(4'-Nitrophenylethynyl)-3α-hydroxy-5β-pregnan-20-one]: the IC50 amounted to 0.046 µM and the IMAX was determined as 103%.

`CC(C)CCC[C@@H](C)[C@H]1CC[C@H]2[C@@H]3CC=C4C[C@@H](O)CC[C@]4(C)[C@H]3CC[C@]12C` [Cholesterol, reference compound] displayed an IMAX of 0%. The compound `C[C@]12CC[C@@H](O)C[C@H]1CC[C@@H]1[C@@H]2CC[C@]2(C)[C@@H](C(=O)Cn3ccnc3)CC[C@@H]12` [3α-Hydroxy-21-(1'-imidazolyl)-5β-pregnan-20-one] registered a concentration for half-maximal inhibition (IC50) of 0.073 µM and an IMAX of 57%. As for `CCOC(=O)c1ccc(C#CC2(O)CCC3C(CCC4C3CCC3(C)C(C(C)=O)CCC43)C2)cc1` (stereo not drawn) [3β-(4'-Carboxyphenylethynyl)-3α-hydroxy-19-nor-5β-pregnan-20-one ethyl ester], the half-inhibitory concentration (IC50) stood at 0.015 µM and the IMAX is 94%.

The compound `CC(=O)OCCC#CC1(O)CCC2(C)C(CCC3C2CCC2(C)C(C(C)=O)CCC32)C1` (stereo not drawn) [3β-(4'-Acetoxy-1'-butynyl)-3α-hydroxy-5β-pregnan-20-one] had an IC50 of 0.02 µM and an IMAX of 96%.

`C[C@]12CC[C@](O)(C#CCCO)C[C@H]1CC[C@@H]1[C@@H]2CC[C@]2(C)[C@@H](C(=O)Cn3ccnc3)CC[C@@H]12` [3α-Hydroxy-3β-(4-hydroxybutyn-1-yl)-21-(1-imidazolyl)-5β-pregnan-20-one]: the half-maximal inhibitory concentration (IC50) amounted to 0.054 µM and the IMAX turned out to be 93%. In the same order, the values of `CC(=O)[C@H]1CC[C@H]2[C@@H]3CC[C@@H]4C[C@@](O)(C#Cc5ccncc5)CC[C@]4(C)[C@H]3CC[C@]12C` [3α-Hydroxy-3β-(4-pyridyl)ethynyl-5β-pregnan-20-one] are 0.149 µM and 103%. Compound `CC(=O)c1ccc(C#C[C@@]2(O)CC[C@@]3(C)[C@@H](CC[C@@H]4[C@@H]3CC[C@]3(C)[C@@H](C(C)=O)CC[C@@H]43)C2)cc1` [3β-(4'-Acetylphenylethynyl)-3α-hydroxy-5α-pregnan-20-one] returned a 50% inhibitory concentration (IC50) of 0.005 µM and an IMAX of 93%. The compound `CC12CCC(O)(C#CCCO)CC1CCC1C2CCC2(C)C(C(=O)Cn3cncn3)CCC12` (stereo not drawn) [3α-hydroxy-3β-(4-hydroxybutyn-1-yl)-21-(1,2,4-triazol-1-yl)-5β-pregnan-20-one] returned an IMAX of 96%.

`CC(=O)[C@H]1CC[C@H]2[C@@H]3CC[C@@H]4C[C@@](O)(CCCc5ccccc5)CC[C@]4(C)[C@H]3CC[C@]12C` [3α-Hydroxy-3β-(3'-phenylpropyl)-5β-pregnan-20-one]: the IC50 worked out at 0.173 µM and the IMAX was found to be 92%. `C[C@]12CC[C@H]3[C@@H](CC[C@@H]4C[C@@](O)(C#CCCO)CC[C@@H]43)[C@@H]1CC[C@@H]2C(=O)Cn1ccnc1` [3α-Hydroxy-3β-(4-hydroxybutyn-1-yl)-21-(1-imidazolyl)-5β-19-norpregnan-20-one] gave an IC50 of 0.098 µM and an IMAX of 98%. In the same order, the values of `CC(=O)CCC#C[C@@]1(O)CC[C@@]2(C)[C@H](CC[C@@H]3[C@@H]2CC[C@]2(C)[C@@H](C(C)=O)CC[C@@H]32)C1` [3α-Hydroxy-3β-[5-oxo-1-hexynyl]-5β-pregnan-20-one] are 0.118 µM and 101%. Taken in the same sequence, the figures for `CC(=O)[C@H]1CC[C@H]2[C@@H]3CC[C@@H]4C[C@@](O)(C#Cc5c(F)c(F)c(F)c(F)c5F)CC[C@]4(C)[C@H]3CC[C@]12C` [3β-(pentafluorophenylethynyl)-3α-hydroxy-5β-pregnan-20-one] were 0.079 µM and 69%. Taken in the same sequence, the figures for `C[C@]12CC[C@@H](O)C[C@H]1CC[C@@H]1[C@@H]2CC[C@]2(C)[C@@H](C(=O)Cn3cnc([N+](=O)[O-])c3)CC[C@@H]12` [3a-hydroxy-21-[1H-(4-nitro)imidazol-1-yl)-5β-pregnan-20-one] were 0.267 µM and 71%. Turning to `C[C@]12CC[C@@H](O)C[C@H]1CC[C@@H]1[C@@H]2CC[C@]2(C)[C@@H](C(=O)Cn3cnnn3)CC[C@@H]12` [3α-hydroxy-21-(1'H-1,2,3,4-tetrazol-1'-yl)-5β-pregnan-20-one], the concentration for half-maximal inhibition (IC50) was 0.227 µM and the IMAX amounted to 60%. Regarding `CC(=O)[C@H]1CC[C@H]2[C@@H]3CC[C@@H]4C[C@@](O)(C#CCCC(N)=O)CC[C@]4(C)[C@H]3CC[C@]12C` [3β-(4'-Carboxamidobutynyl)-3α-hydroxy-5β-pregnan-20-one], the IC50 was 2.34 µM and the IMAX is 102%. As to `CC(=O)OCC(=O)c1ccc(C#C[C@@]2(O)CC[C@@]3(C)[C@H](CC[C@@H]4[C@@H]3CC[C@]3(C)[C@@H](C(C)=O)CC[C@@H]43)C2)cc1` [3α-hydroxy-3β-(4'-acetoxyacetylphenylethynyl)-5β-pregnan-20-one], the IC50 was 0.171 µM and the IMAX was 91%. For the compound `CC(=O)[C@H]1CC[C@H]2[C@@H]3CC[C@@H]4C[C@@](O)(CCc5ccccc5O)CC[C@]4(C)[C@H]3CC[C@]12C` [3β-(2'-Hydroxyphenyl)ethyl-3α-hydroxy-5β-pregnan-20-one], the half-maximal inhibitory concentration (IC50) was found to be 0.101 µM and the IMAX is 83%. `C[C@]12CC[C@@H]3c4ccc(O)cc4CC[C@H]3[C@@H]1CC[C@@H]2O` [17β-Estradiol, reference compound] returned an IMAX of 0%. The compound `CC(=O)[C@H]1CC[C@H]2[C@@H]3CC[C@@H]4C[C@@](O)(C#CCCO)CC[C@]4(C)[C@H]3C(=O)C[C@]12C` [3β-(4'-Hydroxy-1'-butynyl)-3α-hydroxy-5β-pregnan-11,20-dione] showed an IC50 of 0.268 µM and an IMAX of 102%. In the case of `CC1(O)CCC2(C)C(CCC3C2CCC2(C)C(C(=O)Cn4nccn4)CCC32)C1` (stereo not drawn) [3α-hydroxy-3β-methyl-21(2'H-1',2',3'-triazol-2'-yl)-5α-pregnan-20-one], the IC50 was 0.085 µM and the IMAX is 99%.

On to `CC(=O)[C@H]1CC[C@H]2[C@@H]3CC[C@H]4C[C@@H](O)CC[C@]4(C)[C@H]3CC[C@]12C` [3β-Hydroxy-5α-pregnan-20-one, reference compound], for which the IC50 is more than 1000 µM and the IMAX is given as 33%. On to `C[C@]12CC[C@@H](O)C[C@@H]1CC[C@@H]1[C@@H]2CC[C@]2(C)[C@@H](C(=O)Cn3cccn3)CC[C@@H]12` [3α-hydroxy-21-(1'-pyrazolyl)-5α-pregnan-20-one], for which the half-inhibitory concentration (IC50) was 0.1 µM and the IMAX was found to be 98%. In the same order, the values of `CC(=O)[C@H]1CC[C@H]2[C@@H]3CC[C@@H]4C[C@@](O)(C#CCCC#N)CC[C@]4(C)[C@H]3CC[C@]12C` [3β-(4-cyano-1-butynyl)-3α-hydroxy-5β-pregnan-20-one] are 0.131 µM and 86%.

Compound `CC(=O)C#C[C@@]1(O)CC[C@@]2(C)[C@H](CC[C@@H]3[C@@H]2CC[C@]2(C)[C@@H](C(C)=O)CC[C@@H]32)C1` [3α-Hydroxy-3β-(3'-oxobutynyl)-5β-pregnan-20-one] gave an IC50 of 2.69 µM and an IMAX of 107%. Consider `CC(=O)[C@H]1CC[C@H]2[C@@H]3CC[C@@H]4C[C@@](O)(Cc5ccccc5)CC[C@]4(C)[C@H]3CC[C@]12C` [3β-Benzyl-3α-hydroxy-5β-pregnan-20-one, 3α-hydroxy-3β-benzyl-5β-pregnan-20-one], for which the half-maximal inhibitory concentration (IC50) came out at 0.109 µM and the IMAX was 102%.

Values taken from patent EP1038880B1, “Androstanes and pregnanes for allosteric modulation of GABA receptor” (priority 1994, dated 1995).
